The record followed here is patent US11617777B2, “Cytotoxic and anti-mitotic compounds, and methods of using the same” (ZYMEWORKS BC INC., priority 2013, dated 2023).

SMILES strings stand for the structures.

One experiment has as its system Jurkat cells. Description: Cytotoxicity of compounds, CellTiter-Glo. Format: cell-based, Human. The settings on record: Homo sapiens, Jurkat, Table 3; Cytotoxicity of Compounds on Jurkat Cells; read-out: EC50. From the text: Cell lines used: Human T-cell leukemia cell line Jurkat (ATCC: TIB-152); HCC1954 (ATCC: CRL. 2338); Human Pancreatic cells lines: AsPC-1 (ATCC: CRL-1682), BxPC-3 (ATCC: CRL.1687), HPAF-II (ATCC: CRL.1997), MiaPaCa2 (ATCC: CRL.1420), PANC-1 (ATCC: CRL.1469), Capan-1 (ATCC: HTB-79), Capan-2 (ATCC: HTB-80) and the Human gastric carcinoma cell line NCI-N87 (ATCC: CRL. 5822); AML-193 (ATCC: CRL.9589), CCRF-CEM (ATCC: CCL-119), DU145 (ATCC: HTB-81), PC-3 (ATCC: CRL.1435), A-431 (ATCC: CRL.1555), HT-29 (ATCC: HTB-38), A-172 (ATCC: CRL.1620), NCI-H358 (ATCC: CRL.5807), A549 (ATCC: CCL-185), Colo-205 (ATCC: CCL-222), MDA-MB-231 (ATCC: HTB-26), OVCAR-3 (ATCC: HTB-161), OV-90 (ATCC: CRL.11732), OE19 (Sigma: 96071721), RT 112/84 (Sigma: 85061106).
On the day prior to adding compounds, HCC1954 AsPC-1, BxPC-3, HPAF-II, MiaPaCa2, PANC-1, Capan-1, Capan-2 and NCI-N87 cells were added to opaque-walled 96-well tissue culture-treated microtiter plates using complete growth medium at a density of 2500 cells/100 microlitre (uL) of medium. These adherant cell lines cells were incubated for one night at 37° C./5% CO2 to allow the cells to attach to the microtiter plate surface. On the day that compounds were added, Jurkat cells are added to separate 96-well microtiter plates at 2500 cells/100 uL using the same growth medium as HCC1954. Compound were first serially diluted using dimethyl sulfoxide, and then the prepared dilutions are added to complete growth medium at five-times the final concentration—compounds were then titrated 1:3, eight steps. A control with no compound (growth medium alone) was included on each microtiter plate in sextuplicate. The prepared compounds titrations were added (twenty-five uL/well) in triplicate. The cells and compound titrations were incubated at 37° C./5% CO2 for three nights. After the incubation, cell viability is measured using CellTiter-Glo® reagent by adding thirty uL of prepared CellTiter-Glo® to each assay well. The assay is incubated for at least twenty minutes in the dark prior to measuring emitted luminescence using a microplate luminometer (500 ms integration time). The collected relative luminescence units (RLU) are converted to % cytotoxicity using the Growth medium alone control mentioned above (% Cytotoxicity=1−[Well RLU/average medium alone control RLU]).
GraphPad Prism was used for generation of EC50 values using three parameter non-linear regression curve fitting.
In general terms: ATP-based viability assays read luminescence as a measure of living cells.
As to `CN[C@H](C(=O)N[C@H](C(=O)N1CCCCC1C=C(C)C(=O)NS(=O)(=O)c1ccc(CS)cc1)C(C)(C)C)C(C)(C)c1ccccc1` (mixture of isomers) [Compound 118, (S)—N—((S)-1-(2-(3-(4-(mercaptomethyl)phenylsulfonamido)-2-methyl-3-oxoprop-1-enyl)piperidin-1-yl)-3,3-dimethyl-1-oxobutan-2-yl)-3-methyl-2-(methylamino)-3-phenylbutanamide], the EC50 turned out to be 13 nM. `CN[C@H](C(=O)N[C@H](C(=O)N(C)[C@H](/C=C(\C)C(=O)NS(=O)(=O)c1c(C)cc(C)cc1C)C(C)C)C(C)(C)C)C(C)(C)c1ccccc1` [Compound 12, (S,E)-N-(mesitylsulfonyl)-2,5-dimethyl-4-((S)—N,3,3-trimethyl-2-((S)-3-methyl-2-(methylamino)-3-phenylbutanamido)butanamido)hex-2-enamide]: the EC50 came to 0.03 nM. As for `CN[C@H](C(=O)N[C@H](C(=O)N(C)[C@H](/C=C(\C)C(=O)NS(=O)(=O)c1ccc(OC(F)(F)F)cc1)C(C)C)C(C)(C)C)C(C)(C)c1ccccc1` [Compound 13, (S,E)-2,5-dimethyl-N-(4-(trifluoromethoxy)phenylsulfonyl)-4-((S)—N,3,3-trimethyl-2-((S)-3-methyl-2-(methylamino)-3-phenylbutanamido)butanamido)hex-2-enamide], the concentration for a half-maximal effect (EC50) was determined as 0.038 nM. For the molecule `CN[C@H](C(=O)N[C@H](C(=O)N(C)[C@H](/C=C(\C)C(=O)NS(=O)(=O)c1c(C(C)C)cc(C(C)C)cc1C(C)C)C(C)C)C(C)(C)C)C(C)(C)c1ccccc1` [Compound 15, (S,E)-2,5-dimethyl-N-(2,4,6-triisopropylphenylsulfonyl)-4-((S)—N,3,3-trimethyl-2-((S)-3-methyl-2-(methylamino)-3-phenylbutanamido)butanamido)hex-2-enamide], the EC50 came out at 7.6 nM. On to `CN[C@H](C(=O)N[C@H](C(=O)N(C)[C@H](/C=C(\C)C(=O)NS(=O)(=O)c1ccc(C(C)(C)C)cc1)C(C)C)C(C)(C)C)C(C)(C)c1ccccc1` [Compound 16, (S,E)-N-(4-tert-butylphenylsulfonyl)-2,5-dimethyl-4-((S)—N,3,3-trimethyl-2-((S)-3-methyl-2-(methylamino)-3-phenylbutanamido)butanamido)hex-2-enamide], for which the EC50 turned out to be 0.041 nM. As for `CN[C@H](C(=O)N[C@H](C(=O)N(C)[C@H](/C=C(\C)C(=O)NS(=O)(=O)c1ccc(Cl)cc1)C(C)C)C(C)(C)C)C(C)(C)c1ccccc1` [Compound 17, (S,E)-N-(4-chlorophenylsulfonyl)-2,5-dimethyl-4-((S)—N,3,3-trimethyl-2-((S)-3-methyl-2-(methylamino)-3-phenylbutanamido)butanamido)hex-2-enamide], the EC50 is 0.325 nM. Still for that read-out and setting: to `CN[C@H](C(=O)N[C@H](C(=O)N(C)[C@H](/C=C(\C)C(=O)NS(=O)(=O)c1cccc(C#N)c1)C(C)C)C(C)(C)C)C(C)(C)c1ccccc1` [Compound 18, (S,E)-N-(3-cyanophenylsulfonyl)-2,5-dimethyl-4-((S)—N,3,3-trimethyl-2-((S)-3-methyl-2-(methylamino)-3-phenylbutanamido)butanamido)hex-2-enamide] belongs 1.36 nM. Take `CN[C@H](C(=O)N[C@H](C(=O)N(C)[C@H](/C=C(\C)C(=O)NS(=O)(=O)c1ccccc1[N+](=O)[O-])C(C)C)C(C)(C)C)C(C)(C)c1ccccc1` [Compound 19, (S,E)-2,5-dimethyl-N-(2-nitrophenylsulfonyl)-4-((S)—N,3,3-trimethyl-2-((S)-3-methyl-2-(methylamino)-3-phenylbutanamido)butanamido)hex-2-enamide]: the EC50 was determined as 0.152 nM. Regarding `CN[C@H](C(=O)N[C@H](C(=O)N(C)[C@H](/C=C(\C)C(=O)NS(=O)(=O)c1ccccc1)C(C)C)C(C)(C)C)C(C)(C)c1ccccc1` [Compound 25, (S,E)-2,5-dimethyl-N-(phenylsulfonyl)-4-((S)—N,3,3-trimethyl-2-((S)-3-methyl-2-(methylamino)-3-phenylbutanamido)butanamido)hex-2-enamide], the concentration for a half-maximal effect (EC50) is 0.05 nM. Still for that read-out and setting: to `CN[C@H](C(=O)N[C@H](C(=O)N(C)[C@H](/C=C(\C)C(=O)NS(=O)(=O)NCc1ccccc1F)C(C)C)C(C)(C)C)C(C)(C)c1ccccc1` [Compound 26, (S,E)-N—(N-(2-fluorobenzyl)sulfamoyl)-2,5-dimethyl-4-((S)—N,3,3-trimethyl-2-((S)-3-methyl-2-(methylamino)-3-phenylbutanamido)butanamido)hex-2-enamide] belongs 0.105 nM; to `CN[C@H](C(=O)N[C@H](C(=O)N(C)[C@H](/C=C(\C)C(=O)NS(=O)(=O)N1CCCCC1)C(C)C)C(C)(C)C)C(C)(C)c1ccccc1` [Compound 27, (S,E)-2,5-dimethyl-N-(piperidin-1-ylsulfonyl)-4-((S)—N,3,3-trimethyl-2-((S)-3-methyl-2-(methylamino)-3-phenylbutanamido)butanamido)hex-2-enamide], 0.157 nM; to `CN[C@H](C(=O)N[C@H](C(=O)N(C)[C@H](/C=C(\C)C(=O)NS(=O)(=O)c1ccc(Br)cc1)C(C)C)C(C)(C)C)C(C)(C)c1ccccc1` [Compound 29, (S,E)-N-(4-bromophenylsulfonyl)-2,5-dimethyl-4-((S)—N,3,3-trimethyl-2-((S)-3-methyl-2-(methylamino)-3-phenylbutanamido)butanamido)hex-2-enamide], 0.121 nM. Same read-out and setting: to `CN[C@H](C(=O)N[C@H](C(=O)N(C)[C@H](/C=C(\C)C(=O)NS(=O)(=O)c1ccc2ccccc2c1)C(C)C)C(C)(C)C)C(C)(C)c1ccccc1` [Compound 30, (S,E)-2,5-dimethyl-N-(naphthalen-2-ylsulfonyl)-4-((S)—N,3,3-trimethyl-2-((S)-3-methyl-2-(methylamino)-3-phenylbutanamido)butanamido)hex-2-enamide] belongs 0.109 nM; to `CN[C@H](C(=O)N[C@H](C(=O)N(C)[C@H](/C=C(\C)C(=O)NS(=O)(=O)NCc1ccccc1C(F)(F)F)C(C)C)C(C)(C)C)C(C)(C)c1ccccc1` [Compound 32, (S,E)-2,5-dimethyl-N—(N-(2-(trifluoromethyl)benzyl)sulfamoyl)-4-((S)—N,3,3-trimethyl-2-((S)-3-methyl-2-(methylamino)-3-phenylbutanamido)butanamido)hex-2-enamide], 0.265 nM. On the same count and under the same terms, as for `CN[C@H](C(=O)N[C@H](C(=O)N(C)[C@H](/C=C(\C)C(=O)NS(=O)(=O)CCOC)C(C)C)C(C)(C)C)C(C)(C)c1ccccc1` [Compound 34, (S,E)-N-(2-methoxyethylsulfonyl)-2,5-dimethyl-4-((S)—N,3,3-trimethyl-2-((S)-3-methyl-2-(methylamino)-3-phenylbutanamido)butanamido)hex-2-enamide], the figure is 0.2 nM. For the molecule `CN[C@H](C(=O)N[C@H](C(=O)N(C)[C@H](/C=C(\C)C(=O)NS(=O)(=O)Cc1ccccc1)C(C)C)C(C)(C)C)C(C)(C)c1ccc(N=[N+]=[N-])cc1` [Compound 42, (S,E)-4-((S)-2-((S)-3-(4-azidophenyl)-3-methyl-2-(methylamino)butanamido)-N,3,3-trimethylbutanamido)-N-(benzylsulfonyl)-2,5-dimethylhex-2-enamide], the EC50 turned out to be 0.165 nM.

Staying with this experiment, now noted: Homo sapiens, Jurkat, Table 6; Compound Cytotoxicity on Jurkat; read-out: EC50.
`CN[C@H](C(=O)N[C@H](C(=O)N(C)[C@H](/C=C(\C)C(=O)NS(=O)(=O)c1ccc(OC(F)(F)F)cc1)C(C)C)C(C)(C)C)C(C)(C)c1ccccc1` [Compound 13, (S,E)-2,5-dimethyl-N-(4-(trifluoromethoxy)phenylsulfonyl)-4-((S)—N,3,3-trimethyl-2-((S)-3-methyl-2-(methylamino)-3-phenylbutanamido)butanamido)hex-2-enamide]: the 50% effective concentration (EC50) came out at 1.51 nM. `CCCCC(C)S(=O)(=O)NC(=O)/C(C)=C/[C@H](C(C)C)N(C)C(=O)[C@@H](NC(=O)[C@@H](NC)C(C)(C)c1ccccc1)C(C)(C)C` (stereo partly drawn) [Compound 33, (4S,E)-N-(hexan-2-ylsulfonyl)-2,5-dimethyl-4-((S)—N,3,3-trimethyl-2-((S)-3-methyl-2-(methylamino)-3-phenylbutanamido)butanamido)hex-2-enamide]: the EC50 was determined as 0.636 nM. On the same count and under the same terms, as for `CN[C@H](C(=O)N[C@H](C(=O)N(C)[C@H](/C=C(\C)C(=O)NS(=O)(=O)CC1CCCC1)C(C)C)C(C)(C)C)C(C)(C)c1ccccc1` [Compound 35, (S,E)-N-(cyclopentylmethylsulfonyl)-2,5-dimethyl-4-((S)—N,3,3-trimethyl-2-((S)-3-methyl-2-(methylamino)-3-phenylbutanamido)butanamido)hex-2-enamide], the figure is 0.832 nM.

In general, EC50 refers to the concentration that produces a half-maximal response.
